According to patent publication US11981944B2, “Immunogenic arginase peptides” (IO Biotech ApS, priority 2016, dated 2024):

How the values were obtained:
Format in all cases: cell-based, human
[1] = test system: PBMCs from cancer patients; test: IFNγ ELISPOT with HLA Class I / Class II blocking; conditions: anti-Class I W6/32 or anti-Class II Tü39; FIG. 11B
Description: PBMCs from healthy donors or cancer patients were stimulated with 80 μg of arginase-derived peptides and 120 U/ml IL-2 (Peprotech, London, UK, cat. 200-02) for a week. 4-6×10^5 PBMCs were then placed in the bottom of ELISPOT plate (nitrocellulose bottomed 96-well plates by MultiScreen MAIP N45; Millipore, cat. MSIPN4W50) pre-coated with IFN-y capture Ab (Mabtech, cat. 3420-3-1000) and 1-10 μg of arginase derived peptides were added. PBMCs from each patient and donors were set up in duplicates or triplicates for peptide and control stimulations. Cells were incubated in ELISPOT plates in the presence of an antigen for 14-16 hours after which they are washed off and secondary biotinylated Ab (Mabtech, cat. 3420-6-1000) was added. After 2 h incubation unbound secondary antibody was washed off and streptavidin conjugated alkaline phosphatase (AP) (Mabtech, cat. 3310-10) was added for 1 h. Next, unbound conjugated enzyme is washed off and the assay is developed by adding BCIP/NBT substrate (Mabtech, cat. 3650-10). Developed ELISPOT plates were analysed on CTL ImmunoSpot S6 Ultimate-V analyzer using Immunospot software v5.1. Responses were calculated as the difference between average numbers of spots in wells stimulated with Arginase-1 peptides and control wells. […]

[2] = test system: PBMCs from healthy donors or cancer patients; test: IFNγ ELISPOT on PBMCs after one week peptide and IL-2 stimulation (Example 2); conditions: selected PBMCs from cancer patients and healthy donors; one week stimulation with IL-2; FIG. 10B, 10C
Description: PBMCs from healthy donors or cancer patients were stimulated with 80 μg of arginase-derived peptides and 120 U/ml IL-2 (Peprotech, London, UK, cat. 200-02) for a week. 4-6×10^5 PBMCs were then placed in the bottom of ELISPOT plate (nitrocellulose bottomed 96-well plates by MultiScreen MAIP […]; Millipore, cat. MSIPN4W50) pre-coated with IFN-y capture Ab (Mabtech, cat. 3420-3-1000) and 1-10 μg of arginase derived peptides were added. PBMCs from each patient and donors were set up in duplicates or triplicates for peptide and control stimulations. Cells were incubated in ELISPOT plates in the presence of an antigen for 14-16 hours after which they are washed off and secondary biotinylated Ab (Mabtech, cat. 3420-6-1000) was added. After 2 h incubation unbound secondary antibody was washed off and streptavidin conjugated alkaline phosphatase (AP) (Mabtech, cat. 3310-10) was added for 1 h. Next, unbound conjugated enzyme is washed off and the assay is developed by adding BCIP/NBT substrate (Mabtech, cat. 3650-10). Developed ELISPOT plates were analysed on CTL ImmunoSpot S6 Ultimate-V analyzer using Immunospot software v5.1. Responses were calculated as the difference between average numbers of spots in wells stimulated with Arginase-1 peptides and control wells. We divided the entire arginase-1 protein sequence into overlapping 20-amino-acid-long peptides, generating a library of 31 peptides covering the whole sequence (SEQ ID NOs 18-48)). Each peptide in the library overlapped with the first 10 amino acids of the following peptide. Using this arginase peptide library and the IFNγ ELISPOT assay, we next screened PBMCs from melanoma patients and healthy donors for spontaneous responses (FIGS. 9A and 9B). The PBMCs were stimulated for one week with a pool of 3-4 adjacent 20-mer arginase library peptides and low-dose IL-2 (120 U/mL). They were then set up for an IFNγ ELISPOT assay to screen for responses against each 20-mer peptide separately. […] Among these overlapping peptides, […]-200), and Arg(191-210) spanned a 50-amino-acid-long region that was deemed a hot-spot region since nearly all patients harbored a response against one or more of these peptides (FIG. 9A). The selected eight peptides were further used to screen for spontaneous immune responses against arginase-1 in PBMCs from eight healthy donors using IFNγ ELISPOT. […] Since we most frequently observed responses against arginase-1 peptides from the hot-spot region, we next analyzed whether longer peptides covering the same sequence could be used instead of four 20-mers. […] We then divided the arginase-1 hot-spot region into two 30-mer peptides that overlapped by 10 amino acids (peptides labelled by reference to start and end position): […]-190) and […]-210). These 30-mer peptides were used to check for responses in selected PBMCs from cancer patients and healthy donors, which had previously shown responses against the 20-mer hot-spot peptides. The PBMCs were stimulated for one week with either […]-190) or […]-210) in the presence of IL-2, and were then used in IFNγ ELISPOT.

[3] = test system: PBMCs from two healthy donors and one cancer patient; test: Intracellular staining for IFNγ and TNFα release in PBMCs
Description: Flow cytometry analysis was performed on a FACSCanto™ II (BD Biosciences, San Jose CA, USA). Intracellular staining of cell cultures was performed after the cells were stimulated with 20-mere peptides for 5 hours or 30-mere peptides for 8h (BD GolgiPlug™ cat. 555029, was added after the first hour). The cells were then stained for surface markers, then washed and permeabilized by using Fixation/Permeabilization and Permeabilization Buffer (eBioscience, cat. 00-5123-43), according to manufacturer's instructions. Antibodies used: IFNγ-APC (cat. 341117), TNFα-BV421 (cat. 562783), CD4-FITC (cat. 347413), CD8-PerCP (cat. 345774) (all from BD Biosciences). Dead cells were stained using FVS510 (564406, BD Biosciences) according to manufacturer's instructions.
To investigate which types of T cells reacted to the peptide epitopes in the hot-spot region, we performed intracellular staining for IFNγ and TNFα release in PBMCs from two healthy donors and one cancer patient, which had shown responses against the Arg(161-190) peptide in IFNγ ELISPOT.

[4] = test system: arginase-specific CD4+ T-cell culture; test: Recognition by arginase-specific CD4+ T-cell culture (ArgShort-stimulated)
Description: PBMCs from healthy donors or cancer patients were stimulated with 80 μg of arginase-derived peptides and 120 U/ml IL-2 (Peprotech, London, UK, cat. 200-02) for a week. 4-6×10^5 PBMCs were then placed in the bottom of ELISPOT plate (nitrocellulose bottomed 96-well plates by MultiScreen MAIP N45; Millipore, cat. MSIPN4W50) pre-coated with IFN-y capture Ab (Mabtech, cat. 3420-3-1000) and 1-10 μg of arginase derived peptides were added. PBMCs from each patient and donors were set up in duplicates or triplicates for peptide and control stimulations. Cells were incubated in ELISPOT plates in the presence of an antigen for 14-16 hours after which they are washed off and secondary biotinylated Ab (Mabtech, cat. 3420-6-1000) was added. After 2 h incubation unbound secondary antibody was washed off and streptavidin conjugated alkaline phosphatase (AP) (Mabtech, cat. 3310-10) was added for 1 h. Next, unbound conjugated enzyme is washed off and the assay is developed by adding BCIP/NBT substrate (Mabtech, cat. 3650-10). Developed ELISPOT plates were analysed on CTL ImmunoSpot S6 Ultimate-V analyzer using Immunospot software v5.1. Responses were calculated as the difference between average numbers of spots in wells stimulated with Arginase-1 peptides and control wells.
Arginase-specific T cell culture were established by stimulation of cancer patient PBMC with irradiated ArgShort (SEQ ID NO 9) peptide-loaded autologous DC or PBMCs. The following day IL-7 and IL-12 (PeproTech, London, UK, cat. 200-07-10 and 200-12) were added. Stimulation of the cultures were carried out every 8 days with ArgShort peptide loaded irradiated autologous DC followed by ArgShort peptide-loaded irradiated autologous PBMC. The day after peptide stimulation IL-2 […]. After 5 stimulations arginase-specific T cells were enriched using TNF-α cell enrichment kit (MiltenyiBiotec, cat. 130-091-269).
Flow cytometry analysis was performed on a FACSCanto™ II (BD Biosciences, San Jose CA, USA). […]

“GFSWVTPCISAKDIVYIGLRDVDPGEHYIL (Peptide fragment of human Arginase 1) [Arg(161-190), 30-mer, positions 161-190 of human Arginase 1]” was tested, and the “IFNγ release in response to peptide on blocking HLA Class I or Class II” value [1] was “partially blocked the IFNγ release”, the “IFNγ ELISPOT responses against longer hot-spot peptides” value [2] was “high responses” and the “TNFα release from CD4+ T cells” value ([3]; 8-hour incubation with peptide, FIG. 11A) was “detected TNFα release from CD4+ T cells”. The “response from CD8+ T cells” value ([3]; some samples, data not shown) was “minor response”, the “TNFα release from CD4+ T cells, intracellular staining” value ([4]; 8 hours of peptide stimulation, FIG. 11C right) was “TNFα release from CD4+ T cells” and the “recognition by T-cell culture specific against the minimal arginase epitope” value ([4]; IFNγ ELISPOT and intracellular staining, FIG. 11C) was “recognized”.
